The target in this assay is T1, A2AR (hADORA2A-HEK293 cells) (Homo sapiens, UniProt P29274).
T1 construct: expressed in transfected cells; host or cells: HEK293 (hADORA2A-HEK293)
T1 sequence (P29274 whole entry): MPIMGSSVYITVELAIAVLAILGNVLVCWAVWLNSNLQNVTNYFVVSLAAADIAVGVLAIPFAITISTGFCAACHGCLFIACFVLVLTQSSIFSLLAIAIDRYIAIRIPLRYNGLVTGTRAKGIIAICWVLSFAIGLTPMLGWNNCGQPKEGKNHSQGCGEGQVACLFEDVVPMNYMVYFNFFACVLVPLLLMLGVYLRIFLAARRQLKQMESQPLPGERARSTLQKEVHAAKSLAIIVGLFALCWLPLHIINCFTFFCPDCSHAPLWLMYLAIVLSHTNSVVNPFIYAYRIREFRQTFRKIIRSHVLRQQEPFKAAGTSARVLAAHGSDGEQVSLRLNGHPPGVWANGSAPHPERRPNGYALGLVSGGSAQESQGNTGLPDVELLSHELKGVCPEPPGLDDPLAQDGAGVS
Put plainly: functional cAMP production assay (NECA-stimulated cAMP production, TR-FRET). The class given is cell-based. The following applies: inhibition of NECA (EC80)-stimulated cAMP production in A2AR-expressing HEK293 cells; read-out: A2AR Potency. The method, then: The antagonistic activities of the triazolotriazine derivatives of the present invention were measured in a functional cAMP production assay. The assay consists of NECA stimulation of cAMP production and its inhibition by A2AR antagonists in A2AR-expressing HEK293 cells (hADORA2A-HEK293). All cells were cultured in complete medium at 37° C. in 5% CO2. The cells were detached with pancreatin and collected at 200 g for 5 min. After resuspending the cells in fresh complete medium, the cell viability is counted using the trypan blue exclusion method. […] After the cells were diluted with Hank's buffered saline solution containing HEPES (5 mM), BSA stabilizer (0.1%) and […] Rolipram (10 μM), cells were loaded into white opaque 384-well plates (˜500 cells/well, 10 μl/well) and incubated with test compound at a suitable concentration range (11 concentrations) for 20 min at room temperature. Then the A2A receptor agonist NECA (final concentration=EC80, which was determined in the same experiment slightly earlier) was added to the sample and the mixture was incubated again for 30 min at 37° C. […] The inhibition rate (%) was calculated according to the following formula. The IC50 values were calculated from concentration−inhibition (%) curves after log transformation.
Background: Cyclic AMP is a second messenger, typically raised through Gs and lowered through Gi signalling.
Consider `Nc1nc(NCCc2ccc(C(=O)NCCN3CCCC3)cc2)nc2nc(-c3ccco3)nn12` [Example 11, 4-(2-((7-Amino-2-(furan-2-yl)-[1,2,4]triazolo[1,5-a][1,3,5]triazin-5-yl)amino)ethyl)-N-(2-(pyrrolidin-1-yl)ethyl)benzamide], for which the IC50 is 0.0434 µM.
Then `Nc1nc(NCCc2ccc(C(=O)NCCN3CCOCC3)cc2)nc2nc(-c3ccco3)nn12` [Example 12, 4-(2-((7-Amino-2-(furan-2-yl)-[1,2,4]triazolo[1,5-a][1,3,5]triazin-5-yl)amino)ethyl)-N-(2-morpholinoethyl)benzamide], with 0.0271 µM.
As for `CN1CCN(CCNC(=O)c2ccc(CCNc3nc(N)n4nc(-c5ccco5)nc4n3)cc2)CC1` [Example 13, 4-(2-((7-Amino-2-(furan-2-yl)-[1,2,4]triazolo[1,5-a][1,3,5]triazin-5-yl)amino)ethyl)-N-(2-(4-methylpiperazin-1-yl)ethyl)benzamide], the figure is 0.033 µM; as for `Nc1nc(NCCc2ccc(C(=O)N3CCC(F)(F)CC3)cc2)nc2nc(-c3ccco3)nn12` [Example 16, (4-(2-((7-Amino-2-(furan-2-yl)-[1,2,4]triazolo[1,5-a][1,3,5]triazin-5-yl)amino)ethyl)phenyl)-(4,4-difluoropiperidin-1-yl)methanone], 0.024 µM.
As to `Nc1nc(NCCc2ccc(C(=O)N3CCC(F)CC3)cc2)nc2nc(-c3ccco3)nn12` [Example 17, (4-(2-((7-Amino-2-(furan-2-yl)-[1,2,4]triazolo[1,5-a][1,3,5]triazin-5-yl)amino)ethyl)phenyl)-(4-fluoropiperidin-1-yl)methanone], the IC50 is 0.00754 µM.
With `Nc1nc(NCCc2ccc3cnccc3c2)nc2nc(-c3ccco3)nn12` [Example 27, 2-(Furan-2-yl)-N5-(2-(isoquinolin-6-yl)ethyl)-[1,2,4]triazolo[1,5-a][1,3,5]triazine-5,7-diaminee], the IC50 worked out at 0.00908 µM.
For the compound `CNC(=O)c1ccc(CCNc2nc(N)n3nc(-c4ccco4)nc3n2)cc1` [Example 35, 4-(2-(7-Amino-2-(furan-2-yl)-[1,2,4]triazolo[1,5-a][1,3,5]triazin-5-ylamino)ethyl)-N-methylbenzamide], the IC50 worked out at 0.0138 µM.
Then `NC(=O)c1ccc(CCNc2nc(N)n3nc(-c4ccco4)nc3n2)cc1` [Example 36, 4-(2-(7-Amino-2-(furan-2-yl)-[1,2,4]triazolo[1,5-a][1,3,5]triazin-5-ylamino)ethyl)benzamide], with 0.0133 µM; and `Nc1nc(NCCc2ccc(C(=O)N3CCCCC3)cc2)nc2nc(-c3ccco3)nn12` [Example 37, (4-(2-(7-Amino-2-(furan-2-yl)-[1,2,4]triazolo[1,5-a][1,3,5]triazin-5-ylamino)ethyl)-phenyl)(piperidin-1-yl)methanone], with 0.006 µM; and `CC(C)N(C)C(=O)c1ccc(CCNc2nc(N)n3nc(-c4ccco4)nc3n2)cc1` [Example 42, 4-(2-(7-Amino-2-(furan-2-yl)-[1,2,4]triazolo[1,5-a][1,3,5]triazin-5-ylamino)ethyl)-N-isopropyl-N-methylbenzamide], with 0.0193 µM.
As to `CC(C)(CO)NC(=O)c1ccc(CCNc2nc(N)n3nc(-c4ccco4)nc3n2)cc1` [Example 43, 4-(2-(7-Amino-2-(furan-2-yl)-[1,2,4]triazolo[1,5-a][1,3,5]triazin-5-ylamino)ethyl)-N-(1-hydroxy-2-methylpropan-2-yl)benzamide], the IC50 was 0.0171 µM.
With `Nc1nc(NCCc2ccc(C(=O)N3CCc4ncccc4C3)cc2)nc2nc(-c3ccco3)nn12` [Example 45, (4-(2-(7-Amino-2-(furan-2-yl)-[1,2,4]triazolo[1,5-a][1,3,5]triazin-5-ylamino)ethyl)phenyl)-(7,8-dihydro-1,6-naphthyridin-6(5H)-yl)methanone], the IC50 worked out at 0.0274 µM.
As to `Nc1nc(NCCc2ccc(-c3nn[nH]n3)cc2)nc2nc(-c3ccco3)nn12` [Example 125, N5-(4-(2H-Tetrazol-5-yl)phenethyl)-2-(furan-2-yl)-[1,2,4]triazolo[1,5-a][1,3,5]triazine-5,7-diamine], the IC50 came out at 0.0145 µM.

Values taken from patent publication US11858942B2, “Triazolotriazine derivatives as A2A receptor antagonists” (ZHEJIANG VIMGREEN PHARMACEUTICALS, LTD., priority 2018, dated 2024).
